System: 5×FAD mice
Assay: Y-maze test
Type: in vivo, mouse
Protocol: Parathyroid hormone (human) was purchased from TOCRIS Bioscience (Cat #3011/1, Abingdon, United Kingdom). WT or 5×FAD mice (both male and female) were treated with PTH1-34 intermittently [once daily injection of hPTH1-34 (50 μg/Kg) or vehicle (0.9% sodium chloride) (as a control) by subcutaneous injection, starting at 2-MO, 5 days per week] as described previously. Mice were then subjected to behavioral tests and sacrificed for examinations of their bone and brain phenotypes at the indicated ages.
Mice (female and male) at the age of ˜5-MO were subjected to behavioral studies. The experimental procedures are described as previously. […] The total arm entries and the number of tri-ads were recorded to quantify the percentage of spontaneous alternation. For novel object recognition (NOR), which tests mouse's memory ability for a novel object, 20 min were recorded to analyze the time to explore the old object vs. the new object of each mouse. […] During test trials, one of the objects was replaced with a new object and mice were free to explore for another 20 min, and the time spent exploring the new object and the old object was recorded. The discrimination index is quantified as the novelty object preference, which is the time spent exploring the new object minus the time exploring the old object over the total exploration time.

CC[C@H](C)[C@H](NC(=O)[C@H](CCC(=O)O)NC(=O)[C@H](CO)NC(=O)[C@@H](NC(=O)[C@@H](N)CO)C(C)C)C(=O)N[C@@H](CCC(N)=O)C(=O)N[C@@H](CC(C)C)C(=O)N[C@@H](CCSC)C(=O)N[C@@H](Cc1cnc[nH]1)C(=O)N[C@@H](CC(N)=O)C(=O)N[C@@H](CC(C)C)C(=O)NCC(=O)N[C@@H](CCCCN)C(=O)N[C@@H](Cc1cnc[nH]1)C(=O)N[C@@H](CC(C)C)C(=O)N[C@@H](CC(N)=O)C(=O)N[C@@H](CO)C(=O)N[C@@H](CCSC)C(=O)N[C@@H](CCC(=O)O)C(=O)N[C@@H](CCCN=C(N)N)C(=O)N[C@H](C(=O)N[C@@H](CCC(=O)O)C(=O)N[C@@H](Cc1c[nH]c2ccccc12)C(=O)N[C@@H](CC(C)C)C(=O)N[C@@H](CCCN=C(N)N)C(=O)N[C@@H](CCCCN)C(=O)N[C@@H](CCCCN)C(=O)N[C@@H](CC(C)C)C(=O)N[C@@H](CCC(N)=O)C(=O)N[C@@H](CC(=O)O)C(=O)N[C@H](C(=O)N[C@@H](Cc1cnc[nH]1)C(=O)N[C@@H](CC(N)=O)C(=O)N[C@@H](Cc1ccccc1)C(=O)O)C(C)C)C(C)C [PTH1-34] was tested, and the “Y maze spontaneous alternation” value (5×FAD female mice ~5-MO vs Veh-treated 5×FAD female) was “an increase in spontaneous alternation” and the “Y maze spontaneous alternation” value (5×FAD male mice ~5-MO vs Veh) was “positive effect on the spontaneous alternation”.
